Experimental data taken from US20240350447A1, “DELIVERY METHODS FOR TREATING BRAIN AND CENTRAL NERVOUS SYSTEM DISEASES” (JENIVISION INC., priority 2021, published 2024).

How the values were obtained:
[1] = Baseline endogenous levels of DHA, DHA-EE and JV-DE1; format: in vivo; details: undosed Bama minipigs
Experimental: Endogenous levels were measured in the plasma, cerebrospinal fluid, ocular tissues (retina, optic nerve, ocular muscles), and brain. The endogenous levels DHA are not attributable to NIODP administration of DHA, DHA-EE, or JV-DE1. The baseline data collected in Table 4 was taken from the same lot of pigs, from the same vendor, as the information collected in Tables 5-7.

[2] = JV-DE1 distribution after single periorbital skin administration; format: in vivo, Bama minipigs
Experimental: In this example, 158.45 μg of 4,5-dihydro-N-[4-[[4-(1-methylethoxy) phenyl]methyl] phenyl]-1H-imadazol-2-amine (JV-DE1) was applied to the periorbital skin of a right eye of a Bama minipig. […] 1.37 ng/g of tissue and 1.35 ng/g of tissue of JV-DE1 was measured in the left and right halves of the brain, respectively. The average amount of JV-DE1 present in the brain 3 hours post-dosage was 1.36 ng/g.
Given that the average Bama pig brain weighs around 60 g, the amount of JV-DE1 delivered to the brain can be estimated to be […]. Therefore, 0.051% of the 158.45 μg of JV-DE1 administered to the periorbital skin was delivered to the brain, […] than the deliverability of DHA via NIODP. As a comparison, only about 0.025% of DHA that is orally administered is delivered to the brain or CNS.

[3] = Biodistribution of JV-DE1 after periorbital skin (NIODP) application to one eye; format: in vivo, Cynomolgus monkeys; details: 165.4 μg to OD via NIODP; for OS/OD retina ratio of JV-DE1: undosed/dosed retina
Experimental: An experiment was performed to determine the biodisposition of 4,5-dihydro-N-[4-[[4-(1-methylethoxy) phenyl]methyl] phenyl]-1H-imadazol-2-amine (JV-DE1) following topical application to the periorbital skin that surrounds the anterior portion of the globe was performed.
165.4 μg of JV-DE1, a synthesized chemical compound, was applied to the right eye (OD) of Cynomolgus monkeys via NIODP. The monkeys were restrained from rubbing their eyes for 2 hours post dose and closely monitored by experimenter(s) to prevent cross-contamination of the untreated eye, yet JV-DE1 was quickly found in the undosed upper eyelid (733.4 ng/g), retina (5.2 ng/g) and Vitreous humor (1.03 ng/mL) as early as 0.5-hour post dose. Throughout the 3, 6, and 24-hour post dose points, low levels of JV-DE1 was detected in the retina at 5.5 ˜ 45.5 ng/g of the dosed eye, and 1.4 ˜ 6.3 ng/g of the undosed eye. The ratio of JV-DE1 in undoseD retina vs. the dosed retina was below 25.5% at all post dose time points tested.

[4] = JV-DE1 in cornea and retina after single eye drop administration; format: in vivo, New Zealand Rabbits; details: 120 μg/eye eye drops to the right eye
Source text: NIODP may be more efficient than topical eye drops for corneal delivery to treat corneal disorders, such as dry disease. […] Accordingly, NIODP may be used to deliver other compounds (such as DHA) to the cornea to treat corneal diseases, such as dry eye.

[5] = 3 h, JV-DE1 158.45 μg to periorbital skin of right eye

CC(C)Oc1ccc(Cc2ccc(NC3=NCCN3)cc2)cc1 [JV-DE1, 4,5-dihydro-N-[4-[[4-(1-methylethoxy)phenyl]methyl]phenyl]-1H-imadazol-2-amine]
Baseline endogenous concentration in brain [1]: BLQ | Baseline endogenous concentration in cerebrospinal fluid [1]: BLQ | Baseline endogenous concentration in eye tissue homogenate including (Retina, optic nerve, ocular muscle) [1]: BLQ | Baseline endogenous concentration in plasma [1]: BLQ | Drug Concentration in Plasma ([2]; 0 h, JV-DE1 158.45 μg to periorbital skin of right eye): BLQ | Drug Concentration in Plasma ([2]; 1 h, JV-DE1 158.45 μg to periorbital skin of right eye): BLQ | Percentage of administered dose delivered to the brain ([2]; 3 h, JV-DE1 158.45 μg periorbital, whole brain estimate): 0.051% | % of administered dose: Cerebrospinal fluid [2, 5]: 0% | % of administered dose: brain-left [2, 5]: 0.0518% | % of administered dose: brain-right [2, 5]: 0.0513% | % of administered dose: inferior rectus muscle-left [2, 5]: 0.0061% | % of administered dose: inferior rectus muscle-right [2, 5]: 0.0170% | % of administered dose: lateral rectus muscle-left [2, 5]: 0.0063% | % of administered dose: lateral rectus muscle-right [2, 5]: 0.0175% | % of administered dose: medial rectus muscle-left [2, 5]: 0.0071% | % of administered dose: medial rectus muscle-right [2, 5]: 0.0260% | % of administered dose: optic nerve-left [2, 5]: 0.0006% | % of administered dose: optic nerve-right [2, 5]: 0.0047% | % of administered dose: retina-left [2, 5]: 0.0002% | % of administered dose: retina-right [2, 5]: 0.0003% | % of administered dose: superior rectus muscle-left [2, 5]: 0.0140% | % of administered dose: superior rectus muscle-right [2, 5]: 0.0237% | Average JV-DE1 present in the brain [2, 5]: 1.36 ng/g | Drug Concentration in Plasma [2, 5]: BLQ | Drug Concentration in Tissue: Cerebrospinal fluid [2, 5]: BLQ | Drug Concentration in Tissue: brain-left [2, 5]: 1.37 ng/g | Drug Concentration in Tissue: brain-right [2, 5]: 1.35 ng/g | Drug Concentration in Tissue: inferior rectus muscle-left [2, 5]: 57.27 ng/g | Drug Concentration in Tissue: inferior rectus muscle-right [2, 5]: 58.71 ng/g | Drug Concentration in Tissue: lateral rectus muscle-left [2, 5]: 53.65 ng/g | Drug Concentration in Tissue: lateral rectus muscle-right [2, 5]: 43.50 ng/g | Drug Concentration in Tissue: medial rectus muscle-left [2, 5]: 43.67 ng/g | Drug Concentration in Tissue: medial rectus muscle-right [2, 5]: 65.54 ng/g | Drug Concentration in Tissue: optic nerve-left [2, 5]: 11.94 ng/g | Drug Concentration in Tissue: optic nerve-right [2, 5]: 33.63 ng/g | Drug Concentration in Tissue: retina-left [2, 5]: 2.30 ng/g | Drug Concentration in Tissue: retina-right [2, 5]: 2.70 ng/g | Drug Concentration in Tissue: superior rectus muscle-left [2, 5]: 85.83 ng/g | Drug Concentration in Tissue: superior rectus muscle-right [2, 5]: 88.37 ng/g | Amount of JV-DE1 delivered to the brain (estimated) ([2]; 3 h, brain weight around 60 g, JV-DE1 158.45 μg periorbital): 80.6 ng | JV-DE1 in plasma ([3]; 0 h post dose): BLQ | JV-DE1 in plasma ([3]; 0.5 h post dose): 0.131 ng/mL | JV-DE1 in plasma ([3]; 3 h post dose): 0.21 ng/mL | JV-DE1 in plasma ([3]; 6 h post dose): 0.26 ng/mL | JV-DE1 in plasma ([3]; 24 h post dose): BLQ | JV-DE1 in cornea ([3]; OD (dosed eye), 0.5 h): 9299.3 ng/g | JV-DE1 in retina ([3]; OD (dosed eye), 0.5 h): 39.6 ng/g | JV-DE1 in upper eyelid ([3]; OD (dosed eye), 0.5 h): 26535.4 ng/g | JV-DE1 in vitreous humor ([3]; OD (dosed eye), 0.5 h): 15.2 ng/mL | Retina/Upper eyelid ratio of JV-DE1 ([3]; OD (dosed eye), 0.5 h): 0.1% | JV-DE1 in cornea ([3]; OD (dosed eye), 3 h): 16688.7 ng/g | JV-DE1 in retina ([3]; OD (dosed eye), 3 h): 27.9 ng/g | JV-DE1 in upper eyelid ([3]; OD (dosed eye), 3 h): 32454.7 ng/g | JV-DE1 in vitreous humor ([3]; OD (dosed eye), 3 h): 7.79 ng/mL | Retina/Upper eyelid ratio of JV-DE1 ([3]; OD (dosed eye), 3 h): 0.1% | JV-DE1 in cornea ([3]; OD (dosed eye), 6 h): 23929.5 ng/g | JV-DE1 in retina ([3]; OD (dosed eye), 6 h): 45.5 ng/g | JV-DE1 in upper eyelid ([3]; OD (dosed eye), 6 h): 7945.6 ng/g | JV-DE1 in vitreous humor ([3]; OD (dosed eye), 6 h): 3.9 ng/mL | Retina/Upper eyelid ratio of JV-DE1 ([3]; OD (dosed eye), 6 h): 0.6% | JV-DE1 in cornea ([3]; OD (dosed eye), 24 h): 1621.3 ng/g | JV-DE1 in retina ([3]; OD (dosed eye), 24 h): 5.5 ng/g | JV-DE1 in upper eyelid ([3]; OD (dosed eye), 24 h): 11597.8 ng/g | JV-DE1 in vitreous humor ([3]; OD (dosed eye), 24 h): 18.97 ng/mL | Retina/Upper eyelid ratio of JV-DE1 ([3]; OD (dosed eye), 24 h): 0.0% | JV-DE1 in cornea ([3]; OS (undosed eye), 0.5 h): 0 ng/g | JV-DE1 in retina ([3]; OS (undosed eye), 0.5 h): 5.2 ng/g | JV-DE1 in upper eyelid ([3]; OS (undosed eye), 0.5 h): 733.4 ng/g | JV-DE1 in vitreous humor ([3]; OS (undosed eye), 0.5 h): 1.03 ng/mL | Retina/Upper eyelid ratio of JV-DE1 ([3]; OS (undosed eye), 0.5 h): 0.7% | JV-DE1 in cornea ([3]; OS (undosed eye), 3 h): 0 ng/g | JV-DE1 in retina ([3]; OS (undosed eye), 3 h): 6.3 ng/g | JV-DE1 in upper eyelid ([3]; OS (undosed eye), 3 h): 1637 ng/g | JV-DE1 in vitreous humor ([3]; OS (undosed eye), 3 h): 1.85 ng/mL | Retina/Upper eyelid ratio of JV-DE1 ([3]; OS (undosed eye), 3 h): 0.4% | JV-DE1 in cornea ([3]; OS (undosed eye), 6 h): 0 ng/g | JV-DE1 in retina ([3]; OS (undosed eye), 6 h): 4.8 ng/g | JV-DE1 in upper eyelid ([3]; OS (undosed eye), 6 h): 378.2 ng/g | JV-DE1 in vitreous humor ([3]; OS (undosed eye), 6 h): 0.57 ng/mL | Retina/Upper eyelid ratio of JV-DE1 ([3]; OS (undosed eye), 6 h): 1.3% | JV-DE1 in cornea ([3]; OS (undosed eye), 24 h): 0 ng/g | JV-DE1 in retina ([3]; OS (undosed eye), 24 h): 1.4 ng/g | JV-DE1 in upper eyelid ([3]; OS (undosed eye), 24 h): 46.3 ng/g | JV-DE1 in vitreous humor ([3]; OS (undosed eye), 24 h): 0 ng/mL | Retina/Upper eyelid ratio of JV-DE1 ([3]; OS (undosed eye), 24 h): 3.0% | Ratio of JV-DE1 in undosed retina vs. dosed retina ([3]; all post dose time points tested): below 25.5% | OS/OD retina ratio of JV-DE1 ([3]; 0.5 h): 13.1% | OS/OD retina ratio of JV-DE1 ([3]; 3 h): 22.6% | OS/OD retina ratio of JV-DE1 ([3]; 6 h): 10.5% | OS/OD retina ratio of JV-DE1 ([3]; 24 h): 25.5% | JV-DE1 in cornea ([4]; OD (dosed eye), 0.5 h): 12124.85 ng/g | JV-DE1 in retina ([4]; OD (dosed eye), 0.5 h): 92.03 ng/g | JV-DE1 in cornea ([4]; OD (dosed eye), 2 h): 5952.6 ng/g | JV-DE1 in retina ([4]; OD (dosed eye), 2 h): 49.13 ng/g | JV-DE1 in cornea ([4]; OD (dosed eye), 6 h): 5125.52 ng/g | JV-DE1 in retina ([4]; OD (dosed eye), 6 h): 58.87 ng/g | JV-DE1 in cornea ([4]; OD (dosed eye), 24 h): 542.19 ng/g | JV-DE1 in retina ([4]; OD (dosed eye), 24 h): 6.82 ng/g | JV-DE1 in cornea ([4]; OS (undosed eye), 0.5 h): 78.35 ng/g | JV-DE1 in retina ([4]; OS (undosed eye), 0.5 h): 7.35 ng/g | JV-DE1 in cornea ([4]; OS (undosed eye), 2 h): 28.92 ng/g | JV-DE1 in retina ([4]; OS (undosed eye), 2 h): 3.38 ng/g | JV-DE1 in cornea ([4]; OS (undosed eye), 6 h): 67.82 ng/g | JV-DE1 in retina ([4]; OS (undosed eye), 6 h): 1.42 ng/g | JV-DE1 in cornea ([4]; OS (undosed eye), 24 h): 11.03 ng/g | JV-DE1 in retina ([4]; OS (undosed eye), 24 h): BLQ
